Legend:
Jurkat T cells = test: Resazurin-based cell viability assay of Jurkat cells; details: 3 days, concentrations up to 10 μM
Procedure: (§1) Jurkat (E6.1, ATCC) cells were cultured in RPMI with 10% FBS and 1.5% PennStrep. Jurkat cells (1×10^6) were transfected with 10 μg of BRE-Luciferase (kindly provided by Martine Roussel & Peter ten Dijke) or NFAT-Luciferase cDNA (Promega) by electroporation (BioRad, square-wave, 250V, […]) in 400 μL serum/antibiotic free RPMI with 0.5% DMSO. Thirty minutes after transfection, cells were transferred to complete RPMI and rested overnight. Before plating, cells were re-suspended in fresh media and diluted to 0.5×10^6 cells/mL. HEK293T cells were cultured in DMEM with 10% FBS, 1% PennStrep, and 500 μg/mL G418 (Corning). Cells were transfected using SuperFect reagent and supplied transfection protocols. HUVEC cells were cultured in Lonza Endothelial Cell Growth Medium (EGM-2) and used between passages 3 and 7. All cells were cultured at 37° C. with 5% CO2.
Jurkat or HUVEC cells were plated at 1000 cells/well in 180 μL growth media before addition of 20 μL of 10X drug/protein stock. After incubation for 72 h, 22 μL of a resazurin sodium salt solution (0.1 mg/mL stock in water) was added to each well and allowed to incubate at 37° C. The metabolic conversion of resazurin dye was monitored by absorbance at 570 nm after 6 h. After background subtraction (media only+dye), absorbance values were left as arbitrary absorbance units or normalized to those obtained from cells treated with DMSO.

[1] = test system: BMP type 1 receptor (SMAD1/5 phosphorylation); test: SMAD1/5 phosphorylation Western blot in Jurkat cells; assay type: cell-based; details: LDN treatment
[2] = test system: full-thickness excisional wounds; test: In vivo excisional wound model in diabetic GK rats; design: species or system Goto-Kakizaki (GK) type-2 diabetic rats
Procedure: Goto-Kakizaki (GK) type-2 diabetic rats obtained from Charles River (Boston, MA) were housed in a pathogen-free facility and cared for according to NIH guidelines and a protocol approved by the Johns Hopkins University Animal Care and Use Committee (ACUC). Both male and female GK rats at age of 4-5 months were used in this study.
(§2) Full-thickness wounds were created in the dorsal skin of rats with a sterile disposable biopsy punch (8 mm in diameter). The animals were injected subcutaneously with saline, AMD3100 (1 mg/kg) plus FK506 (0.1 mg/kg) or AMD3100 (1 mg/kg) plus FKVP (0.1 mg/kg) immediately after wounding and every other day until complete healing, defined as complete re-epithelialization of the wound area. For assessing the role of BMP signaling, animals were injected intraperitoneally (i.p.) with LDN-193189 (2 mg/kg/day) in addition to standard saline or AF treatment. Wounds were evaluated daily according to the method described previously (Lin et al., 2014).
The one-way analysis of variance (ANOVA) was used to determine the statistically difference in wound healing among AF, AF+LDN, Saline and S+LDN groups or between AF, AV and Saline groups when comparing days of wound healing.

[3] = test system: BMP signaling pathway (ID1 gene promoter); test: BMP-response-element (BRE) luciferase pathway reporter in Jurkat T cells; assay type: cell-based; details: for reduction of FK506- or FKVP-induced BRE reporter activity: LDN at 100 nM; for BRE reporter (ID-1 promoter luciferase) activation: 18 h, normalized to DMSO
Procedure: as §1
Jurkat T cells transfected with BRE-Luc were split into a 96-well plate (80 μL/well of 0.5×10^6 cells/mL)) and treated with previously stated compounds/proteins (20 μL of 5X stock in RPMI, 0.5% DMSO) for 18 h. rBMP-4 and […] (R&D) were used as positive and negative controls, respectively. Plates were centrifuged at 3000 rpm for 10 min, then carefully aspirated. Cells were re-suspended in 100 μL lysis buffer (per well) and placed on a plate-shaker for 30 min. An aliquot of 80 μL of lysate was transferred to a white-walled 96-well plate, and luminescence was recorded 2 seconds after automated injection of luciferase substrate. Luminescence values were background subtracted (lysis buffer+substrate) and normalized to DMSO control values.
FKBP12KO Jurkat T cells transfected with FKBP12-SNAP plasmid were selected with 1200 μg/mL G418 for seven days before use in BRE-Luc assays.

[4] = test system: CD133+ stem cells in wound sites; test: CD133 immunohistochemistry of wound tissue of GK rats; assay type: in vivo, Goto-Kakizaki (GK) type-2 diabetic rats; details: day 7, versus AF
Procedure: as §2
Cut sections of 5 μm were prepared from frozen tissue for immunohistochemistry staining. Frozen sections were fixed with acetone at −20° C. for 10 min and dried for 1 h at room temperature. After inactivation of endogenous peroxidase and blocking of nonspecific antibody binding, the specimens were incubated with anti-CD133 (1:300, ab19898; Abcam) at 4° C. overnight. The tissue sections were then subsequently incubated with biotin-conjugated goat anti-rabbit IgG (1:200, #14708S Cell Signaling, Danvers, MA) for 30 minutes at room temperature. The VectaStain Elite ABC kit (HRP) (Vector Laboratories, Burlingame, CA) was used to increase the sensitivity of the staining. […]

[5] = test system: full-thickness excisional wounds; details: mouse, in vivo; cited from earlier work
[6] = test system: cell migration stimulated by CXCL12; details: cited from earlier work

In the case of `C=CC[C@@H]1/C=C(\C)C[C@H](C)C[C@H](OC)[C@H]2O[C@@](O)(C(=O)C(=O)N3CCCC[C@H]3C(=O)O[C@H](/C(C)=C/[C@@H]3CC[C@@H](O)[C@H](OC)C3)[C@H](C)[C@@H](O)CC1=O)[C@H](C)C[C@@H]2OC` [FK506], the cell viability (Jurkat T cells) is reported as “did not affect cell viability”.

For `c1ccc2c(-c3cnn4cc(-c5ccc(N6CCNCC6)cc5)cnc34)ccnc2c1` [LDN-193189], the “effect on FK506/FKVP-induced SMAD1/5 phosphorylation” value [1] was “abolished”, the “time for complete healing, LDN added to AF combination” value ([2]; LDN-193189 2 mg/kg/day i.p. plus AF) was 25 days and the “effect on wound healing, LDN alone” value ([2]; LDN-193189 2 mg/kg/day i.p. with saline) was “no effect on wound healing”. For the same molecule, the “reduction of FK506- or FKVP-induced BRE reporter activity” value [3] was “completely blocked” and the “number of CD133+ cells in the wounds, LDN added to AF combination” value [4] was “dramatically reduced”.

For `c1cc(CN2CCCNCCNCCCNCC2)ccc1CN1CCCNCCNCCCNCC1` [AMD3100, 1,1′-[1,4-phenylenebis(methylene)]bis-1,4,8,11-tetraazacyclo-tetradecane], the “healing, AMD3100 treatment alone” value [5] is listed as “only slightly faster healing”, the IC50 [6] is listed as 51 ± 17 nM and the “BRE reporter (ID-1 promoter luciferase) activation” value [3] is listed as “no effect on ID-1 promoter stimulation”.

B1: BMP4: recombinant BMP-4 protein, positive control of the BRE reporter (protein, UniProt P12644 293-408, looked up)
Bone morphogenetic protein 4: SPKHHSQRARKKNKNCRRHSLYVDFSDVGWNDWIVAPPGYQAFYCHGDCPFPLADHLNSTNHAIVQTLVNSVNSSIPKACCVPTELSAISMLYLDEYDKVVLKNYQEMVVEGCGCR
With B1 the “BRE reporter (ID-1 promoter luciferase) activation” value [3] was “strong induction of luciferase expression”.

B2: Noggin: extracellular BMP-inhibitor protein (protein, UniProt Q13253 28-232, looked up)
Noggin: QHYLHIRPAPSDNLPLVDLIEHPDPIFDPKEKDLNETLLRSLLGGHYDPGFMATSPPEDRPGGGGGAAGGAEDLAELDQLLRQRPSGAMPSEIKGLEFSEGLAQGKKQRLSKKLRRKLQMWLWSQTFCPVLYAWNDLGSRFWPRYVKVGSCFSKRSCSVPEGMVCKPSKSVHLTVLRWRCQRRGGQRCGWIPIQYPIISECKCSC
For B2, the “reduction of FK506- or FKVP-induced BRE reporter activity” value [3] was “not effective at reducing”.
